Series [1] deals with Formalin Test (pain behaviors). Description: Formalin Test (pain behaviors). It counts as in vivo, rat. Particulars: relative to vehicle control; 75 mg/kg, oral route.
Another series has as its target T1, CYP3A4 (Homo sapiens, UniProt P08684).
T1 construct: purchased Invitrogen
The series can be described thus: In-Vitro Cytochrome P450 (CYP450) Inhibition Assay (Vivid CYP450). The class given is in vitro ADME. As to conditions: CYP3A4 enzyme complex (Vivid CYP450, Invitrogen), 6 μM test concentration. How it is done: We evaluated interaction of drug candidates with cytochrome P450 enzymes which are a major determinant of drug clearance via oxidative metabolism using a high throughput compatible, fluorescence based CYP450 screening assay (Vivid® CYP450, Invitrogen) according to manufacturer's directions.
In brief, test compounds at four different concentrations (μM—6.0, 2.0, 0.7, 0.2), a positive control (Ketoconazole) and a solvent control were incubated at room temperature in unique wells of a 96-well microtiter plate with CYP3A4 enzyme complex for 20 minutes. A pre-read fluorescence (Ex−485 nm/Em−530 nm) was measured at the start of the incubation using a Tecan Safire^2 microplate reader-monochromator to determine background fluorescence. At the end of the incubation period, enzyme substrate and co-enzyme were added and the reaction was kinetically monitored for 1 hour by measuring fluorescence every minute. Effect of test compounds on inhibition of CYP3A4 metabolism of provided substrate was determined by calculating the ratio of the effective reaction rate in presence of test compound to that in the absence of inhibitor.

A further series deals with T2, hNaV1.7 (Homo sapiens, UniProt Q15858).
T2 construct: expressed in transfected cells
Description: FDSS Membrane Potential In-Vitro Assay. The class given is cell-based. As to conditions: stimulation with veratridine and scorpion venom, read-out: NaV1.7 IC50.

The target in the next series is T3, NaV1.7 (Homo sapiens, UniProt Q15858).
T3 construct: expressed in transfected cells
The series can be described thus: Patchliner Electrophysiological In-Vitro Assay (NaV1.7). It counts as cell-based. Particulars: Patchliner patch clamp, HEK293, holding at V1/2. The method in brief:
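Automated whole-cell patch clamp at room temperature on HEK293 cells stably expressing hNav1.7 with β1 and β2 subunits. Inactivated-state Ki: cells held at their own V1/2, stepped to −120 mV for 5–10 ms, then to Vmax for 10–20 ms, repeated every 10 s; dose-dependent inhibition analysed.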
(In patch-clamp work, channel activity is measured electrically.)

Series [2] relates to Partial Sciatic Nerve Ligation (PSNL) model. The series can be described thus: Partial Sciatic Nerve Ligation (PSNL) model, behavioral tests. The class given is in vivo, male Sprague-Dawley rats. As to conditions: 30 mg/kg intraperitoneal, measured 30-60 minutes post dose. The text has this: 250-350 g male Sprague-Dawley rats from appropriate animal resources were anesthetized with 2.5% isoflurane. A hind leg was shaved, and the skin was sterilized with 0.5% iodine and 75% alcohol. All surgical instruments were sterilized before surgery and between animals. An incision (1 cm) was made at the middle of the thigh in parallel with the muscle and sciatic nerve distribution. The muscle was exposed and dissected at the joint of two muscles (biceps femoris) indicated by the light colored (white) fascia line. The sciatic nerve was just beneath the muscle and was hooked out using an 18-20 G feeding needle (90 degree curved); the sciatic nerve was flat on the feeding needle and approximately one-half the diameter of the nerve is tightly ligated with 7-0 silk suture. A response of the injured leg twitch indicates the success of ligation. After checking hemostasis, bupivicaine 0.1-0.2 ml (0.125%) was given at the incision area, the muscle and the adjacent fascia are closed with 5-0 absorbable sutures. The skin was sutured with absorbable suture and tissue glue. The control group using sham surgery animals (about 8-10 animals) underwent the same surgical procedure but with no nerve ligation. Animals were returned to their home cage after recovery from anesthesia.
The analgesic effect of the test compound was expressed as a percent recovery (% Recovery) relative to the sham control group baseline and calculated according to the formula:
% Recovery=100%−{[(sham mean−test compound mean)/(sham mean−vehicle mean)]×100%}
wherein “sham mean” refers to average score in the sham-operated group; “test compound mean” refers to average score in the PSNL-group (animals with partial sciatic nerve ligation) or diabetic group (animals treated with STZ) treated with a test compound; “vehicle mean” refers to average score in the PSNL-group or diabetic group treated with vehicle only. The above formula was used to obtain data for the following in vivo behavioral tests.
The following behavioral tests were conducted (i.e., plantar test, paw pressure test, and von Frey test) started on day 3 and thereafter once weekly following surgery or use of a diabetic inducer. […]
(§1) Rats were placed on the glass surface of a thermal testing apparatus (Model 336, IITC/Life Science Instruments, Woodland Hills, Calif.) and were allowed to acclimate for 10 min before testing on the glass surface at room temperature. […] The paw withdrawal latency was recorded by a digital timer. The thermal threshold was determined as the mean withdrawal latency from two to three consecutive trials of both hindpaws. […]
Animals were placed under clear plastic boxes above a wire mesh floor, which allowed full access to the paws. […] Mechanical paw withdrawal thresholds (PWTs) were measured with the up-down testing paradigm. […]

Series [3] concerns Acetic Acid Writhing Model. The series can be described thus: Writhing Model (Inflammatory Abdominal Pain), rats. Particulars: relative to vehicle control, doses of 10 to 30 mg/kg intraperitoneal route. The class given is in vivo. Here is the method: The Acetic Acid Writhing Model is associated with visceral pain (abdominal pain, such as stomach pain, and pain caused by, for example, bile duct congestion and kidney stones). A writhing test assesses acute peritoneovisceral pain. After acclimation of 2-3 days, a test compound, positive control or vehicle control was administered by intraperitoneal injection (i.p.) or by oral gavage 15-30 minutes prior to administration of acetic acid. The time of administration of test compound was recorded. For mice: Method A: 0.6% Acetic acid solution in saline was injected i.p. in a volume of 10 ml/kg; Method B: 1.2% Acetic acid solution in saline was injected i.p. in a volume of 5 ml/kg. For rats: 4% acetic acid in saline was injected i.p in a volume of 2 ml/kg at T=0 minutes. Each animal was placed in a clear plastic cage. At T=5 minutes, the number of writhing movements was counted over a 45 minute period. Alternatively, the writhing movements were counted over a 5-minute period and repeated every 5 minutes, starting at T=5 minutes over a 45-minute period. For each compound tested, the individual score was obtained by calculating the accumulated writhing movements for the time period studied. […]
(Writhing tests count abdominal constrictions after an irritant is injected.)

The subject of series [4] is streptozotocin (STZ)-induced diabetic model. The series can be described thus: Streptozotocin (STZ)-Induced Model of Diabetic Neuropathy, behavioral tests. It counts as in vivo, male Sprague-Dawley rats. Particulars: 30 mg/kg, measured 30 minutes post dose. Here is the method: 250-350 g male Sprague-Dawley rats from appropriate animal resources were used. Type I diabetes was induced by a single injection, (intraperitoneally, intravenously or intramuscularly) of 50-100 mg/kg of streptozotocin (STZ, Sigma Chemicals, St. Louis, Mo. or VWR) freshly dissolved in sodium citrate (0.01 M, pH 4.5). Sham animals were given either saline or same vehicle injection. Following a wait time of about two days, inducement of diabetes was confirmed in STZ-injected rats by measuring the plasma glucose concentrations in blood samples from the tail vein after a fast of 6 hours. […] Other parameters (water intake, food intake, and bodyweight) were monitored before the treatment with a test compound and after the cessation of the treatment.
The analgesic effect of the test compound was expressed as a percent recovery (% Recovery) relative to the sham control group baseline and calculated according to the formula: […]
as §1

T1 sequence (P08684 2-503 limits assumed): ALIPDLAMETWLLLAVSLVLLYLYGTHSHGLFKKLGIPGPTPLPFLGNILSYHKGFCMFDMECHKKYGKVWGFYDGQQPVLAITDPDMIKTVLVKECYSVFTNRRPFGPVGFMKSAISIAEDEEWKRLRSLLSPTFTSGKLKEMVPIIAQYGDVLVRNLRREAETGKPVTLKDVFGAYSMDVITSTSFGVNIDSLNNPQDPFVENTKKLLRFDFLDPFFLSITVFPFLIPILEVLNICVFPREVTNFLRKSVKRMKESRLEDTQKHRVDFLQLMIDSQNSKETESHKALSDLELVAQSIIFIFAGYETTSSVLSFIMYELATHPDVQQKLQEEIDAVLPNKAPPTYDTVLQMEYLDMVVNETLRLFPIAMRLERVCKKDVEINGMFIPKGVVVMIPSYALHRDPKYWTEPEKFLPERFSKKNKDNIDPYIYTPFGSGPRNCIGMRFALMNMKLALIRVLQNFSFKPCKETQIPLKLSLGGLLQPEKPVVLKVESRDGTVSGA
T2 sequence (Q15858 whole entry): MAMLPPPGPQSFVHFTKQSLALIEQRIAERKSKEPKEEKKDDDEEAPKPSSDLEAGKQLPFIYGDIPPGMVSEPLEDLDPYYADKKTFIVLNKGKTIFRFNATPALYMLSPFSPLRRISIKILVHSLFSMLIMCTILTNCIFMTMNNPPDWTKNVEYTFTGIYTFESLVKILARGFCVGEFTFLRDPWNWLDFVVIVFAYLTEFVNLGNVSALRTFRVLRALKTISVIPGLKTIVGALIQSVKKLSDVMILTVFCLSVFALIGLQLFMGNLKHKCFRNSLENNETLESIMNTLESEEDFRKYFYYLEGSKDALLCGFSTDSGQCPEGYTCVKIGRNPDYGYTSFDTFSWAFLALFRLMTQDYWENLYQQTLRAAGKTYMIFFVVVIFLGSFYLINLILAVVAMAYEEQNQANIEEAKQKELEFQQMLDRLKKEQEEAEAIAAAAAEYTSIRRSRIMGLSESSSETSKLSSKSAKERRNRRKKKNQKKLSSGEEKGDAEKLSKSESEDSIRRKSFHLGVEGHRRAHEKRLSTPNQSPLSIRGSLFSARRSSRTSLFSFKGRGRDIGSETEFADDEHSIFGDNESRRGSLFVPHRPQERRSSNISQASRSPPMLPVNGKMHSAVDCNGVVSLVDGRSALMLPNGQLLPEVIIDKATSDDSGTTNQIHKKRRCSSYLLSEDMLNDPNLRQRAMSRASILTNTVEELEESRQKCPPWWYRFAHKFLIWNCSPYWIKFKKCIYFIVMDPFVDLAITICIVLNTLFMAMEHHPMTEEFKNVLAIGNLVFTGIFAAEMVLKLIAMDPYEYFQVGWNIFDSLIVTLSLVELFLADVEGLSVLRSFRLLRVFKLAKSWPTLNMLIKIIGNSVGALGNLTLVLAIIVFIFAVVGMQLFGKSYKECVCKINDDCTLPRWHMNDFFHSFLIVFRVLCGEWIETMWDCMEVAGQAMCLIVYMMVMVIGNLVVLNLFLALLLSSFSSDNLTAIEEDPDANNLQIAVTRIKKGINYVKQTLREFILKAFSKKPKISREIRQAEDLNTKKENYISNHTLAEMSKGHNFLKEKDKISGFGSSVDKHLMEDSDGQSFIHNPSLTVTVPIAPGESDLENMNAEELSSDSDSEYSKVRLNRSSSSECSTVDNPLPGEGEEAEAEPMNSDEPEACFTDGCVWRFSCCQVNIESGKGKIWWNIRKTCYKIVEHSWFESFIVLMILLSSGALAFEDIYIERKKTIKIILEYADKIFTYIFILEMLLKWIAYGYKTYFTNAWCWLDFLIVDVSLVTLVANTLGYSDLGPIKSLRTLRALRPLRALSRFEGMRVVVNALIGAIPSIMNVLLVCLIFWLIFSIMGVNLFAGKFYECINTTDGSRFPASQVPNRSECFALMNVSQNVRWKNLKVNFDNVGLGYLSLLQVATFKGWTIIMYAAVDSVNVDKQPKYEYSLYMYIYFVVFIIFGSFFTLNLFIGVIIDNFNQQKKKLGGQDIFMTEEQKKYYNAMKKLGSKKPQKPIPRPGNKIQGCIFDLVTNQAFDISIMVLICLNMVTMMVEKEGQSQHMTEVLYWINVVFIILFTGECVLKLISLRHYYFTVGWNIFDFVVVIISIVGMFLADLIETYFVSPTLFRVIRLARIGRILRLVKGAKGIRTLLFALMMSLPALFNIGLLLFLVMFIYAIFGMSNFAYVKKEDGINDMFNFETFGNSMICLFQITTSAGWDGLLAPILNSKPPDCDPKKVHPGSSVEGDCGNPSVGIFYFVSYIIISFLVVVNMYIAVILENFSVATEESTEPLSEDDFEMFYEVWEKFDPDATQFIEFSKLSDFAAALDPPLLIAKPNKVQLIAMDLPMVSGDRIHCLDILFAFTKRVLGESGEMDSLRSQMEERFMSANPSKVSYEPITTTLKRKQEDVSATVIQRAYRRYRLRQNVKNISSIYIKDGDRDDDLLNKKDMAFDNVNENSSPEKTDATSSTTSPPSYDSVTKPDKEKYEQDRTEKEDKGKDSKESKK
T2 sequence (Q07699 19-218 partner): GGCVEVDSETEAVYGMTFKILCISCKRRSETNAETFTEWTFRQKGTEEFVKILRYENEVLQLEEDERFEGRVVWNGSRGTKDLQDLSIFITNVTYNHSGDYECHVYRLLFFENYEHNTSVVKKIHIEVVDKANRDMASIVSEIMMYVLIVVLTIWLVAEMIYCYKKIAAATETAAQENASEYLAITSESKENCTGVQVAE
T2 sequence (O60939 30-215 partner): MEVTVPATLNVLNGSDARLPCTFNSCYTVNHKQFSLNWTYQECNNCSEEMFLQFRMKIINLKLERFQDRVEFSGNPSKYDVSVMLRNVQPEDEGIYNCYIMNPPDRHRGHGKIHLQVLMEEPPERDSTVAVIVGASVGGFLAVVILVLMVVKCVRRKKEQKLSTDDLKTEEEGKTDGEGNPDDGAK
T3 sequence (Q15858 whole entry): as the sequence (Q15858 whole entry) above
T3 sequence (Q07699 19-218 partner): as the sequence (Q07699 19-218 partner) above
T3 sequence (O60939 30-215 partner): as the sequence (O60939 30-215 partner) above

Usually inhibition stands for the share of the control response that was lost under treatment. The IC50 is the concentration at which inhibition is half-maximal. For `O=C(O)CCNC(=O)c1cc(-c2cc(Cl)ccc2Oc2cc(F)c(S(=O)(=O)Nc3ncns3)cc2Cl)ccn1` [Compound 1, 3-(4-(2-(4-(N-(1,2,4-thiadiazol-5-yl)sulfamoyl)-2-chloro-5-fluorophenoxy)-5-chlorophenyl)picolinamido)propanoic acid], in series [1], the “reduction in pain response (formalin assay phase 2)” value was found to be 17% and the “reduction in pain response (formalin assay, phase 1)” value came to 14%. The same molecule returned an inhibition at 1 hour, 6 µM against CYP3A4 of 50 to 100%. For the same molecule, on hNaV1.7, the half-inhibitory concentration (IC50) is < 130 nM. Further, at NaV1.7, the 50% inhibitory concentration (IC50) was < 100 nM. Besides, the “effect in the tactile allodynia test” value in series [2] was “no significant effect”.
Consider `O=C(O)CNC(=O)c1cc(-c2cc(Cl)ccc2Oc2cc(F)c(S(=O)(=O)Nc3ncns3)cc2Cl)ccn1` [Compound 2, 2-(4-(2-(4-(N-(1,2,4-thiadiazol-5-yl)sulfamoyl)-2-chloro-5-fluorophenoxy)-5-chlorophenyl)picolinamido)acetic acid], for which, in series [3], the “reduction in pain (writhing)” value is recorded as 48-58%. The molecule further yielded an inhibition at 1 hour, 6 µM at CYP3A4 of 50 to 100%. The results for the IC50 at hNaV1.7 and at NaV1.7 were < 130 nM and < 100 nM, respectively. The “effect in the tactile allodynia test” value in series [2] was “no significant effect”.
`O=C(O)CCNCCCc1cc(Cl)ccc1Oc1cc(F)c(S(=O)(=O)Nc2cscn2)cc1Cl` [Compound 15, 3-((3-(5-chloro-2-(2-chloro-5-fluoro-4-(N-(thiazol-4-yl)sulfamoyl)phenoxy)phenyl)propyl)amino)propanoic acid]: on CYP3A4, the inhibition at 1 hour, 6 µM lay in the range of 0 to 25%. The “effect in the tactile allodynia test” value in series [4] is “no significant effect”. Moreover, the values for the IC50 on hNaV1.7 and at NaV1.7 were 130 to 1000 nM and < 100 nM, respectively.

The record behind these values is patent US20160221974A1, “SODIUM CHANNEL MODULATORS FOR THE TREATMENT OF PAIN AND DIABETES” (CHROMOCELL CORPORATION, priority 2013, published 2016).
